# Key:
# Assay type in all cases: in vivo
# [1] = test system: galium (catchweed bedstraw, Galium aparine); assay: Test A postemergence, galium; conditions: Postemergence, 0 to 100 scale (0 no effect, 100 complete control)
# Outline: (§1)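 After sowing into a sand-amended loam, pots for the preemergence test were treated by spraying directly onto soil. In parallel, seedlings at the one- to two-leaf stage and 2 to 10 cm tall were treated postemergence with the identical surfactant-containing formulation.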
# [2] = test system: barnyardgrass (Echinochloa crus-galli); assay: Test A preemergence, barnyardgrass; conditions: Preemergence; for Barnyardgrass plant response rating: 125 g ai/ha, visual injury on 0 to 100 scale (0 no effect, 100 complete control), approximately 10 days; for Plant response rating, Barnyardgrass: 0 to 100 scale (0 no effect, 100 complete control)
# Outline: (§2)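 Directed soil spray at planting gave the preemergence treatment, while foliar application to one- to two-leaf seedlings (2–10 cm) gave the postemergence one; pots held a loam and sand mixture and chemicals were carried in a non-phytotoxic solvent with surfactant.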
# [3] = test system: Ryegrass, Italian (Italian ryegrass, Lolium multiflorum); assay: Test A postemergence, Ryegrass, Italian; conditions: Postemergence, 0 to 100 scale (0 no effect, 100 complete control)
# Outline: as §2
# [4] = test system: pigweed (Amaranthus retroflexus); assay: Test A postemergence, pigweed; conditions: Postemergence, 0 to 100 scale (0 no effect, 100 complete control)
# Outline: as §2
# [5] = test system: blackgrass (Alopecurus myosuroides); assay: Test A postemergence, blackgrass; conditions: Postemergence, 0 to 100 scale (0 no effect, 100 complete control)
# Outline: as §2
# kochia (Bassia scoparia) [6] = assay: Test A postemergence, kochia; conditions: Postemergence, 0 to 100 scale (0 no effect, 100 complete control)
# Outline: as §2
# [7] = test system: pigweed (Amaranthus retroflexus); assay: Test A preemergence, pigweed; conditions: for Pigweed plant response rating: 125 g ai/ha, visual injury on 0 to 100 scale (0 no effect, 100 complete control), approximately 10 days; for Plant response rating, Pigweed: 0 to 100 scale (0 no effect, 100 complete control)
# Outline: as §1
# corn (Zea mays) = assay: Test A postemergence, corn; conditions: Postemergence, 0 to 100 scale (0 no effect, 100 complete control)
# Outline: as §2
# [8] = test system: Ryegrass, Italian (Italian ryegrass, Lolium multiflorum); assay: Test A preemergence, Ryegrass, Italian; conditions: Preemergence; for Ryegrass, Italian plant response rating: 125 g ai/ha, visual injury on 0 to 100 scale (0 no effect, 100 complete control), approximately 10 days; for Plant response rating, Ryegrass, Italian: 0 to 100 scale (0 no effect, 100 complete control)
# Outline: as §2
# kochia (Bassia scoparia) [9] = assay: Test A preemergence, kochia; conditions: Preemergence; for Kochia plant response rating: 125 g ai/ha, visual injury on 0 to 100 scale (0 no effect, 100 complete control), approximately 10 days; for Plant response rating, Kochia: 0 to 100 scale (0 no effect, 100 complete control)
# Outline: as §2
# [10] = test system: Foxtail, Giant (giant foxtail, Setaria faberi); assay: Test A preemergence, Foxtail, Giant; conditions: Preemergence; for Foxtail, Giant plant response rating: 125 g ai/ha, visual injury on 0 to 100 scale (0 no effect, 100 complete control), approximately 10 days; for Plant response rating, Foxtail, Giant: 0 to 100 scale (0 no effect, 100 complete control)
# Outline: as §2
# [11] = test system: barnyardgrass (Echinochloa crus-galli); assay: Test A postemergence, barnyardgrass; conditions: Postemergence, 0 to 100 scale (0 no effect, 100 complete control)
# Outline: as §1
# [12] = test system: wheat (Triticum aestivum); assay: Test A postemergence, wheat; conditions: Postemergence, 0 to 100 scale (0 no effect, 100 complete control)
# Outline: as §1
# [13] = test system: Foxtail, Giant (giant foxtail, Setaria faberi); assay: Test A postemergence, Foxtail, Giant; conditions: Postemergence, 0 to 100 scale (0 no effect, 100 complete control)
# Outline: as §2
# [14] = test system: ragweed (common ragweed, Ambrosia artemisiifolia); assay: Test A postemergence, ragweed; conditions: Postemergence, 0 to 100 scale (0 no effect, 100 complete control)
# Outline: as §2
# [15] = 125 g ai/ha, visual injury approx. 10 days
# [16] = 500 g ai/ha, visual injury, approx. 10 days
# [17] = 1000 g ai/ha, visual injury, approx. 10 days
compound,measurement,setting,value
O=C(c1ccc(Cl)c(NS(=O)(=O)C(F)(F)F)c1)N1CCOCC1 [Compound 15],"Plant response rating, Galium",[1]; [15],50
same,"Plant response rating, Galium",[1]; [16],60
same,Barnyardgrass plant response rating,[2],0
same,"Plant response rating, Barnyardgrass",[2]; 500 g ai/ha,0
same,"Plant response rating, Ryegrass, Italian",[3]; [15],30
same,"Plant response rating, Ryegrass, Italian",[3]; [16],0
same,"Plant response rating, Pigweed",[4]; [15],0
same,"Plant response rating, Pigweed",[4]; [16],30
same,"Plant response rating, Blackgrass",[5]; [15],0
same,"Plant response rating, Blackgrass",[5]; [16],30
same,"Plant response rating, Kochia",kochia (Bassia scoparia) [6]; [15],40
same,"Plant response rating, Kochia",kochia (Bassia scoparia) [6]; [16],70
same,Pigweed plant response rating,[7],60
same,"Plant response rating, Pigweed",[7]; 500 g ai/ha,70
same,"Plant response rating, Corn",corn (Zea mays); [15],0
same,"Plant response rating, Corn",corn (Zea mays); [16],0
same,"Ryegrass, Italian plant response rating",[8],30
same,"Plant response rating, Ryegrass, Italian",[8]; 500 g ai/ha,30
same,Kochia plant response rating,kochia (Bassia scoparia) [9],0
same,"Plant response rating, Kochia",kochia (Bassia scoparia) [9]; 500 g ai/ha,80
same,"Foxtail, Giant plant response rating",[10],10
same,"Plant response rating, Foxtail, Giant",[10]; 500 g ai/ha,70
same,"Plant response rating, Barnyardgrass",[11]; [15],0
same,"Plant response rating, Barnyardgrass",[11]; [16],50
same,"Plant response rating, Wheat",[12]; [15],0
same,"Plant response rating, Wheat",[12]; [16],0
same,"Plant response rating, Foxtail, Giant",[13]; [15],0
same,"Plant response rating, Foxtail, Giant",[13]; [16],50
same,"Plant response rating, Ragweed",[14]; [15],70
same,"Plant response rating, Ragweed",[14]; [16],80
Cc1cc(C)c(N(S(=O)(=O)C(F)(F)F)S(=O)(=O)C(F)(F)F)cc1C(=O)N1CCSCC1 [Compound 5],"Plant response rating, Galium",[1]; [17],90
same,"Plant response rating, Barnyardgrass",[2]; 1000 g ai/ha,100
same,"Plant response rating, Ryegrass, Italian",[3]; [17],30
same,"Plant response rating, Pigweed",[4]; [17],80
same,"Plant response rating, Blackgrass",[5]; [17],0
same,"Plant response rating, Kochia",kochia (Bassia scoparia) [6]; [17],80
same,"Plant response rating, Pigweed",[7]; 1000 g ai/ha,100
same,"Plant response rating, Corn",corn (Zea mays); [17],10
same,"Plant response rating, Ryegrass, Italian",[8]; 1000 g ai/ha,100
same,"Plant response rating, Kochia",kochia (Bassia scoparia) [9]; 1000 g ai/ha,90
same,"Plant response rating, Foxtail, Giant",[10]; 1000 g ai/ha,100
same,"Plant response rating, Barnyardgrass",[11]; [17],80
same,"Plant response rating, Wheat",[12]; [17],60
same,"Plant response rating, Foxtail, Giant",[13]; [17],90
same,"Plant response rating, Ragweed",[14]; [17],80
CCN(CC)C(=O)c1cc(NS(=O)(=O)C(F)(F)F)c(Cl)cc1C [Compound 21],"Plant response rating, Galium",[1]; [15],50
same,"Plant response rating, Galium",[1]; [16],60
same,Barnyardgrass plant response rating,[2],80
same,"Plant response rating, Barnyardgrass",[2]; 500 g ai/ha,100
same,"Plant response rating, Ryegrass, Italian",[3]; [15],0
same,"Plant response rating, Ryegrass, Italian",[3]; [16],50
same,"Plant response rating, Pigweed",[4]; [15],0
same,"Plant response rating, Pigweed",[4]; [16],40
same,"Plant response rating, Blackgrass",[5]; [15],10
same,"Plant response rating, Blackgrass",[5]; [16],10
same,"Plant response rating, Kochia",kochia (Bassia scoparia) [6]; [15],10
same,"Plant response rating, Kochia",kochia (Bassia scoparia) [6]; [16],30
same,Pigweed plant response rating,[7],40
same,"Plant response rating, Pigweed",[7]; 500 g ai/ha,60
same,"Plant response rating, Corn",corn (Zea mays); [15],0
same,"Plant response rating, Corn",corn (Zea mays); [16],30
same,"Ryegrass, Italian plant response rating",[8],30
same,"Plant response rating, Ryegrass, Italian",[8]; 500 g ai/ha,100
same,Kochia plant response rating,kochia (Bassia scoparia) [9],0
same,"Plant response rating, Kochia",kochia (Bassia scoparia) [9]; 500 g ai/ha,0
same,"Foxtail, Giant plant response rating",[10],20
same,"Plant response rating, Foxtail, Giant",[10]; 500 g ai/ha,100
same,"Plant response rating, Barnyardgrass",[11]; [15],20
same,"Plant response rating, Barnyardgrass",[11]; [16],40
same,"Plant response rating, Wheat",[12]; [15],0
same,"Plant response rating, Wheat",[12]; [16],30
same,"Plant response rating, Foxtail, Giant",[13]; [15],0
same,"Plant response rating, Foxtail, Giant",[13]; [16],20
same,"Plant response rating, Ragweed",[14]; [15],50
same,"Plant response rating, Ragweed",[14]; [16],90
Cc1ccc(C(=O)N2CCC(C(F)(F)F)CC2)cc1NS(=O)(=O)C(F)(F)F [Compound 263],"Plant response rating, Galium",[1]; [17],60
same,"Plant response rating, Barnyardgrass",[2]; 1000 g ai/ha,30
same,"Plant response rating, Ryegrass, Italian",[3]; [17],80
same,"Plant response rating, Pigweed",[4]; [17],0
same,"Plant response rating, Blackgrass",[5]; [17],20
same,"Plant response rating, Kochia",kochia (Bassia scoparia) [6]; [17],10
same,"Plant response rating, Pigweed",[7]; 1000 g ai/ha,60
same,"Plant response rating, Corn",corn (Zea mays); [17],20
same,"Plant response rating, Ryegrass, Italian",[8]; 1000 g ai/ha,50
same,"Plant response rating, Kochia",kochia (Bassia scoparia) [9]; 1000 g ai/ha,20
same,"Plant response rating, Foxtail, Giant",[10]; 1000 g ai/ha,70
same,"Plant response rating, Barnyardgrass",[11]; [17],30
same,"Plant response rating, Wheat",[12]; [17],0
same,"Plant response rating, Foxtail, Giant",[13]; [17],0
same,"Plant response rating, Ragweed",[14]; [17],0
